In patent US20220119411A1, “IMMUNOMODULATORS, COMPOSITIONS AND METHODS THEREOF” (BETTA PHARMACEUTICALS CO., LTD, priority 2018, published 2022) one finds IC50 data, which are given here for 26 molecules.

This test addresses T1, PD-1/PD-L1 protein/protein interaction (Homo sapiens, UniProt Q9NZQ7).
T1 construct: Recombinant human PD-L1 protein (19-238) with a His-tag at the C-terminus; purchased AcroBiosystems PD1-H5229 (PD-L1); PD1-H5257 (PD-1)
Briefly: PD-1/PD-L1 homogenous time-resolved fluorescence (HTRF) binding assay. The note with it: recombinant human PD-L1 (19-238)-His 10 nM, human PD-1 (25-167)-Fc 3 nM, 25° C., PBS pH 7.4. How it is done:
Resolved Fluorescence (HTRF) Binding Assay
The assays were conducted in a standard black 384-well polystyrene plate with a final volume of 20 μL. Inhibitors were first serially diluted in DMSO and then added to the plate wells before the addition of other reaction components. The final concentration of DMSO in the assay was 1%. The assays were carried out at 25° C. in the PBS buffer (pH 7.4) with 0.05% Tween-20 and 0.1% BSA. Recombinant human PD-L1 protein (19-238) with a His-tag at the C-terminus was purchased from AcroBiosy stems (PD1-H5229). Recombinant human PD-1 protein (25-167) with Fc tag at the C-terminus was also purchased from AcroBiosystems (PD1-H5257). PD-L1 and PD-1 proteins were diluted in the assay buffer and 10 μL was added to the plate well. Plates were centrifuged and proteins were preincubated with inhibitors for 40 min. The incubation was followed by the addition of 10 μL of HTRF detection buffer supplemented with Europium cryptate-labeled anti-human IgG (PerkinElmer-AD0212) specific for Fc and anti-His antibody conjugated to SureLight®—Allophycocyanin (APC, PerkinElmer-AD0059H). After centrifugation, the plate was incubated at 25° C. for 60 min. Before reading on a PHERAstar FS plate reader (665 nm/620 nm ratio). Final concentrations in the assay were—3 nM PD1, 10 nM PD-L1, 1 nM europium anti-human IgG and 20 nM anti-His-Allophycocyanin. IC50 determination was performed by fitting the curve of percent control activity versus the log of the inhibitor concentration using the GraphPad Prism 5.0 software.
Data obtained for the Example compounds using the PD-1/PD-L1 homogenous time-resolved fluorescence (HTRF) binding assay described in Example A is provided in Table 2.

Where only a bound is given, the exact number is not on record here.

T1 sequence (Q9NZQ7 19-238): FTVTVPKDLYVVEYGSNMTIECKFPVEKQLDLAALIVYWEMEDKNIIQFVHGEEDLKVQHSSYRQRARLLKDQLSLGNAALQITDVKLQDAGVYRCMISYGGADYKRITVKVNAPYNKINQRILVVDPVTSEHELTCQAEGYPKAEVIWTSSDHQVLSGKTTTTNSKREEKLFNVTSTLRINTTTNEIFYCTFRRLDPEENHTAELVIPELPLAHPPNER

Regarding `CN1CCc2c(-c3cccc4c3CCN4C(=O)c3nc4c(s3)CN(CC(=O)O)CC4)cccc21` [Example 1, 2-(2-(1′-methyl-[4,4′-biindoline]-1-carbonyl)-6,7-dihydrothiazolo[5,4-c]pyridin-5(4H)-yl)acetic acid], the half-inhibitory concentration (IC50) was in the range of 25 to 100 nM.
For the molecule `CC(=O)N1CCc2c(-c3cccc4c3CCN4C(=O)c3nc4c(s3)CN(CC(=O)O)CC4)cccc21` [Example 2, 2-(2-(1′-acetyl-[4,4′-biindoline]-1-carbonyl)-6,7-dihydrothiazolo[5,4-c]pyridin-5(4H)-yl)acetic acid], the IC50 is at most 25 nM.
In the case of `COc1cccc(-c2cccc3c2CCN3C(=O)c2nc3c(s2)CN(CC(=O)O)CC3)c1` [Example 3, 2-(2-(4-(3-methoxyphenyl)indoline-1-carbonyl)-6,7-dihydrothiazolo[5,4-c]pyridin-5(4H)-yl)acetic acid], the IC50 was at most 25 nM.
On to `O=C(O)CN1CCc2nc(C(=O)N3CCc4c(-c5ccccc5)cccc43)sc2C1` [Example 4, 2-(2-(4-phenylindoline-1-carbonyl)-6,7-dihydrothiazolo[5,4-c]pyridin-5(4H)-yl)acetic acid], for which the IC50 was at most 25 nM.
In the case of `Cc1ccccc1-c1cccc2c1CCN2C(=O)c1nc2c(s1)CN(CC(=O)O)CC2` [Example 5, 2-(2-(4-(o-tolyl)indoline-1-carbonyl)-6,7-dihydrothiazolo[5,4-c]pyridin-5(4H)-yl)acetic acid] it was 25 to 100 nM; in that of `O=C(O)CN1CCc2nc(C(=O)N3CCc4c(-c5cccc6c5CCN6CCCN5CCOCC5)cccc43)sc2C1` [Example 6, 2-(2-(1′-(3-morpholinopropyl)-[4,4′-biindoline]-1-carbonyl)-6,7-dihydrothiazolo[5,4-c]pyridin-5(4H)-yl)acetic acid], at most 25 nM.
`O=C(O)CN1CCc2nc(C(=O)N3CCc4c(-c5cccc(OCCCN6CCC(O)C6)c5)cccc43)sc2C1` (centres unmarked) [Example 7, 2-(2-(4-(3-(3-(3-hydroxypyrrolidin-1-yl)propoxy)phenyl)indoline-1-carbonyl)-6,7-dihydrothiazolo[5,4-c]pyridin-5(4H)-yl)acetic acid]: the IC50 was at most 25 nM.
The result for `O=C(O)CN1CCc2nc(C(=O)N3CCc4c(-c5cccc(OCCN6CCC(O)C6)c5)cccc43)sc2C1` (centres unmarked) [Example 8, 2-(2-(4-(3-(2-(3-hydroxypyrrolidin-1-yl)ethoxy)phenyl)indoline-1-carbonyl)-6,7-dihydrothiazolo[5,4-c]pyridin-5(4H)-yl)acetic acid] reads at most 25 nM; that for `O=C(O)CN1CCc2nc(C(=O)N3CCc4c(-c5cccc(OCCCCN6CCC(O)C6)c5)cccc43)sc2C1` (centres unmarked) [Example 9, 2-(2-(4-(3-(4-(3-hydroxypyrrolidin-1-yl)butoxy)phenyl)indoline-1-carbonyl)-6,7-dihydrothiazolo[5,4-c]pyridin-5(4H)-yl)acetic acid], at most 25 nM; that for `O=C(O)CN1CCc2nc(C(=O)N3CCc4c(-c5cccc(OCCCN6CCC(O)C6)c5)cccc43)sc2C1` (centres unmarked) [Example 10, 2-(2-(4-(3-(3-(3-hydroxypyrrolidin-1-yl)propoxy)phenyl)indoline-1-carbonyl)-6,7-dihydrothiazolo[5,4-c]pyridin-5(4H)-yl)acetic acid], at most 25 nM.
For the molecule `O=C(O)CN1CCc2nc(C(=O)N3CCc4c(-c5cccc6c5CCN6CCCN5CCC(O)C5)cccc43)sc2C1` (centres unmarked) [Example 11, 2-(2-(1′-(3-(3-hydroxypyrrolidin-1-yl)propyl)-[4,4′-biindoline]-1-carbonyl)-6,7-dihydrothiazolo[5,4-c]pyridin-5(4H)-yl)acetic acid], the IC50 is at most 25 nM.
Consider `O=C(O)CN1CCc2nc(C(=O)N3CCc4c(-c5cccc6c5CCN6CCN5CCC(O)C5)cccc43)sc2C1` (centres unmarked) [Example 12, 2-(2-(1′-(2-(3-hydroxypyrrolidin-1-yl)ethyl)-[4,4′-biindoline]-1-carbonyl)-6,7-dihydrothiazolo[5,4-c]pyridin-5(4H)-yl)acetic acid], for which the IC50 was at most 25 nM.
Turning to `Cc1c(NC(=O)CCN2CCC(O)C2)cccc1-c1cccc2c1CCN2C(=O)c1nc2c(s1)CN(CC(=O)O)CC2` (centres unmarked) [Example 13, 2-(2-(4-(3-(3-(3-hydroxypyrrolidin-1-yl)propanamido)-2-methylphenyl)indoline-1-carbonyl)-6,7-dihydrothiazolo[5,4-c]pyridin-5(4H)-yl)acetic acid], the IC50 was at most 25 nM.
As for `O=C(O)CN1CCc2nc(C(=O)N3CCc4c(-c5cccc(NC(=O)CCN6CCC(O)C6)c5)cccc43)sc2C1` (centres unmarked) [Example 14, 2-(2-(4-(3-(3-(3-hydroxypyrrolidin-1-yl)propanamido)phenyl)indoline-1-carbonyl)-6,7-dihydrothiazolo[5,4-c]pyridin-5(4H)-yl)acetic acid], the IC50 is at most 25 nM.
As to `O=C(O)CN1CCc2nc(C(=O)N3CCc4c(-c5cccc(OCCCN6CCOCC6)c5)cccc43)sc2C1` [Example 15, 2-(2-(4-(3-(3-morpholinopropoxy)phenyl)indoline-1-carbonyl)-6,7-dihydrothiazolo[5,4-c]pyridin-5(4H)-yl)acetic acid], the IC50 is at most 25 nM.
Take `O=C(O)CN1CCc2nc(C(=O)N3CCc4c(-c5cccc(CCCCN6CCOCC6)c5)cccc43)sc2C1` [Example 16, 2-(2-(4-(3-(4-morpholinobutyl)phenyl)indoline-1-carbonyl)-6,7-dihydrothiazolo[5,4-c]pyridin-5(4H)-yl)acetic acid]: the IC50 is at most 25 nM.
The result for `O=C(O)CN1CCc2nc(C(=O)N3CCc4c(-c5cccc(CCCN6CCOCC6)c5)cccc43)sc2C1` [Example 17, 2-(2-(4-(3-(3-morpholinopropyl)phenyl)indoline-1-carbonyl)-6,7-dihydrothiazolo[5,4-c]pyridin-5(4H)-yl)acetic acid] reads at most 25 nM.
Regarding `O=C(O)CN1CCc2nc(C(=O)N3CCc4c(-c5cccc(/C=C/CN6CCOCC6)c5)cccc43)sc2C1` [Example 18, (E)-2-(2-(4-(3-(3-morpholinoprop-1-en-1-yl)phenyl)indoline-1-carbonyl)-6,7-dihydrothiazolo[5,4-c]pyridin-5(4H)-yl)acetic acid], the IC50 was at most 25 nM.
For `O=C(O)CN1CCc2nc(C(=O)N3CCc4c(-c5cccc(CCN6CCOCC6)c5)cccc43)sc2C1` [Example 19, 2-(2-(4-(3-(2-morpholinoethyl)phenyl)indoline-1-carbonyl)-6,7-dihydrothiazolo[5,4-c]pyridin-5(4H)-yl)acetic acid], the IC50 was at most 25 nM.
Take `Cc1c(NC(=O)CCN2CCC(O)C2)cccc1-c1cccc2c1CCN2C(=O)c1nc2c(n1C)CN(CC(=O)O)CC2` (centres unmarked) [Example 20, 2-(2-(4-(3-(3-(3-hydroxypyrrolidin-1-yl)propanamido)-2-methylphenyl)indoline-1-carbonyl)-3-methyl-3,4,6,7-tetrahydro-5H-imidazo[4,5-c]pyridin-5-yl)acetic acid]: the IC50 is at most 25 nM.
Regarding `Cc1c(OCCCN2CCOCC2)cccc1-c1cccc2c1CCN2C(=O)c1nc2c(n1C)CN(CC(=O)O)CC2` [Example 21, 2-(3-methyl-2-(4-(2-methyl-3-(3-morpholinopropoxy)phenyl)indoline-1-carbonyl)-3,4,6,7-tetrahydro-5H-imidazo[4,5-c]pyridin-5-yl)acetic acid], the IC50 was at most 25 nM.
The result for `Cc1c(NC(=O)CCN2CCC(O)C2)cccc1-c1cccc2c1CCN2C(=O)c1nc2c(o1)CN(CC(=O)O)CC2` (centres unmarked) [Example 22, 2-(2-(4-(3-(3-(3-hydroxypyrrolidin-1-yl)propanamido)-2-methylphenyl)indoline-1-carbonyl)-6,7-dihydrooxazolo[5,4-c]pyridin-5(4H)-yl)acetic acid] reads at most 25 nM.
As for `Cc1c(OCCCN2CCOCC2)cccc1-c1cccc2c1CCN2C(=O)c1nc2c(o1)CN(CC(=O)O)CC2` [Example 23, 2-(2-(4-(2-methyl-3-(3-morpholinopropoxy)phenyl)indoline-1-carbonyl)-6,7-dihydrooxazolo[5,4-c]pyridin-5(4H)-yl)acetic acid], the IC50 was at most 25 nM.
As to `O=C(O)CN1CCc2nc(C(=O)N3CCc4c(-c5cccc6c5CCN6C(=O)c5nccs5)cccc43)sc2C1` [Example 24, 2-(2-(1′-(thiazole-2-carbonyl)-[4,4′-biindoline]-1-carbonyl)-6,7-dihydrothiazolo[5,4-c]pyridin-5(4H)-yl)acetic acid], the IC50 is 25 to 100 nM.
For the molecule `O=C(O)CN1CCc2nc(C(=O)N3CCc4c(-c5cccc6c5CCN6C(=O)c5ccccn5)cccc43)sc2C1` [Example 25, 2-(2-(1′-picolinoyl-[4,4′-biindoline]-1-carbonyl)-6,7-dihydrothiazolo[5,4-c]pyridin-5(4H)-yl)acetic acid], the IC50 was in the range of 25 to 100 nM.
Consider `Cc1c(NC(=O)c2nccs2)cccc1-c1cccc2c1CCN2C(=O)c1nc2c(s1)CN(CC(=O)O)CC2` [Example 26, 2-(2-(4-(2-methyl-3-(thiazole-2-carboxamido)phenyl)indoline-1-carbonyl)-6,7-dihydrothiazolo[5,4-c]pyridin-5(4H)-yl)acetic acid], for which the IC50 is at most 25 nM.
